Among the data in patent publication US10307427B2, “Apoptosis signal-regulating kinase inhibitors” (Gilead Sciences, Inc., priority 2012, dated 2019) are EC50 values, retold here.

In this assay the test system is CXCL1 in human whole blood. Briefly: Human whole blood CXCL1 assay (Auranofin stimulation). In kind it is cell-based. As to conditions: 5 μM Auranofin, 24 hours, CXCL1 quantified, average of donors, read-out: WB EC50 nM (n = 4). As to the method:
Human Whole Blood CXCL1 Assay
Human blood collected in sodium heparin glass vacutainer tubes (BD Biosciences #366480) was obtained from Stanford Blood Center (Palo Alto, Ca). Red blood cell Ammonium-Chloride-Potassium (ACK) lysis buffer was obtained from Invitrogen (A10492-01) Phosphate buffered saline (PBS, 21-031-CV) and RPMI640 media (10-040-CV) were purchased from Cellgro. 50 ml conical tubes were from BD Biosciences (352070). Multiscreen Filter plates (MSBVS 1210) used along with vacuum manifold for 96-well plate (MAVM0960R) were purchased from EMD Millipore Inc. Transfer pipettes (13-711-20) and hemocytometer (0267110) were purchased from Thermo Fisher Scientific. An Allegra X15R from Beckmann Coulter was used for all the centrifugation steps in the isolation of PBMCs.
ASK1 inhibitors and Auranofin (Enzo Life Sciences Inc. BML-EI206-0100) were dissolved in dimethyl sulfoxide (DMSO, Sigma Aldrich cat#472301) at a concentration of 10 mM and 100 mM, respectively. […] CXCL1 protein was quantified with an ELISA assay from Millipore.
A 10 mM ASK1 inhibitor DMSO stock was diluted in saline to create a 100 μM (10×) working solution. […] 50 μl of the resulting supernatant from each well was transferred to a new 96 well assay plate and the amount of CXCL1 was quantified by a Procarta immunoassay following the manufacturer's instructions. […]

For `O=C(Nc1csc(-c2nncn2C2CC2)n1)c1cc(-n2cnc(C3CC3)c2)c(N2CCOCC2)cn1` [Example 1, 4-(4-cyclopropyl-1H-imidazol-1-yl)-N-(2-(4-cyclopropyl-4H-1,2,4-triazol-3-yl)thiazol-4-yl)-5-morpholinopicolinamide], the EC50 (commonly the concentration that produces a half-maximal response) is 243 nM. Next, `C[C@H](n1cnnc1-c1nc(NC(=O)c2cc(-n3cnc(C4CC4)c3)c(N3CCOCC3)cn2)cs1)C(F)(F)F` [Example 3, (S)-4-(4-cyclopropyl-1H-imidazol-1-yl)-5-morpholino-N-(2-(4-(1,1,1-trifluoropropan-2-yl)-4H-1,2,4-triazol-3-yl)thiazol-4-yl)picolinamide]: 202 nM.
